Test results: the NIST ThermoML archive (doi:10.1016/j.tca.2013.12.016)
Numbers after ± are expanded uncertainties.

Test: mn = molality of the nth substance listed, in mol/kg
Details: 101 kPa, Liquid; for speed of sound: Linear variable-path acoustic interferometer; for mass density: Vibrating tube method

CCOC(C)=O [ethyl acetate] + CCO
Details | mass density, 298.15 K [kg/m3] | mass density, 303.15 K [kg/m3] | mass density, 308.15 K [kg/m3] | mass density, 313.15 K [kg/m3] | speed of sound, 298.15 K [m/s] | speed of sound, 303.15 K [m/s] | speed of sound, 308.15 K [m/s] | speed of sound, 313.15 K [m/s]
m2 = 0.0124 | 894.9 ± 2 | 888.4 ± 2 | 882.9 ± 2 | 877.2 ± 2 | 1152 ± 5 | 1135 ± 5 | 1116 ± 5 | 1093 ± 5
m2 = 0.0357 | 894.7 ± 2 | 888.2 ± 2 | 882.7 ± 2 | 877 ± 2 | 1151 ± 5 | 1134 ± 5 | 1115 ± 5 | 1091 ± 5
m2 = 0.0713 | 894.4 ± 2 | 887.9 ± 2 | 882.4 ± 2 | 876.4 ± 2 | 1150 ± 5 | 1133 ± 5 | 1114 ± 5 | 1090 ± 5
m2 = 0.1025 | 894.2 ± 2 | 887.7 ± 2 | 882.2 ± 2 | 876.5 ± 2 | 1149 ± 5 | 1130 ± 5 | 1110 ± 5 | 1089 ± 5
m2 = 0.2087 | 893.5 ± 2 | 887 ± 2 | 881.5 ± 2 | 875.8 ± 2 | 1147 ± 5 | 1128 ± 5 | 1098 ± 5 | 1077 ± 5
m2 = 0.3504 | 892.6 ± 2 | 886.1 ± 2 | 880.6 ± 2 | 874.9 ± 2 | 1143 ± 5 | 1123 ± 5 | 1092 ± 5 | 1069 ± 5
m2 = 0.5065 | 891.7 ± 2 | 885.3 ± 2 | 879.8 ± 2 | 874 ± 2 | 1140 ± 5 | 1119 ± 5 | 1091 ± 5 | 1067 ± 5
m2 = 0.6771 | 890.7 ± 2 | 884.4 ± 2 | 878.9 ± 2 | 873.2 ± 2 | 1139 ± 5 | 1116 ± 5 | 1086 ± 5 | 1062 ± 5
m2 = 0.9772 | 889.1 ± 2 | 883 ± 2 | 877.4 ± 2 | 871.8 ± 2 | 1136 ± 5 | 1113 ± 5 | 1083 ± 5 | 1059 ± 5
m2 = 1.701 | 885.5 ± 2 | 879.4 ± 2 | 874 ± 2 | 868.3 ± 2 | 1131 ± 5 | 1110 ± 5 | 1080 ± 5 | 1056 ± 5
m2 = 2.712 | 880.6 ± 2 | 874.7 ± 2 | 869.3 ± 2 | 863.7 ± 2 | 1128 ± 5 | 1107 ± 5 | 1074 ± 5 | 1053 ± 5
m2 = 3.001 | 879.4 ± 2 | 873.5 ± 2 | 868.1 ± 2 | 862.5 ± 2 | 1122 ± 5 | 1101 ± 5 | 1068 ± 5 | 1044 ± 5

CCOC(C)=O [ethyl acetate] + CO
Details | mass density, 298.15 K [kg/m3] | mass density, 303.15 K [kg/m3] | mass density, 308.15 K [kg/m3] | mass density, 313.15 K [kg/m3] | speed of sound, 298.15 K [m/s] | speed of sound, 303.15 K [m/s] | speed of sound, 308.15 K [m/s] | speed of sound, 313.15 K [m/s]
m2 = 0.0111 | 894.5 ± 2 | 888.9 ± 2 | 883 ± 2 | 877.1 ± 2 | 1110 ± 5 | 1086 ± 5 | 1059 ± 5 | 1038 ± 5
m2 = 0.0223 | 894.6 ± 2 | 888.8 ± 2 | 882.9 ± 2 | 877 ± 2 | 1113 ± 5 | 1089 ± 5 | 1062 ± 5 | 1041 ± 5
m2 = 0.0495 | 894.7 ± 2 | 888.7 ± 2 | 882.8 ± 2 | 876.9 ± 2 | 1116 ± 5 | 1092 ± 5 | 1065 ± 5 | 1044 ± 5
m2 = 0.1474 | 894.9 ± 2 | 888.6 ± 2 | 882.7 ± 2 | 876.8 ± 2 | 1119 ± 5 | 1095 ± 5 | 1068 ± 5 | 1047 ± 5
m2 = 0.2878 | 894.7 ± 2 | 888.5 ± 2 | 882.4 ± 2 | 876.4 ± 2 | 1122 ± 5 | 1098 ± 5 | 1071 ± 5 | 1050 ± 5
m2 = 0.3556 | 894.4 ± 2 | 888.3 ± 2 | 882.1 ± 2 | 876.2 ± 2 | 1125 ± 5 | 1101 ± 5 | 1074 ± 5 | 1053 ± 5
m2 = 0.4905 | 893.6 ± 2 | 887.7 ± 2 | 881.6 ± 2 | 875.8 ± 2 | 1128 ± 5 | 1104 ± 5 | 1077 ± 5 | 1056 ± 5
m2 = 0.7268 | 892.2 ± 2 | 886.4 ± 2 | 880.6 ± 2 | 874.8 ± 2 | 1131 ± 5 | 1107 ± 5 | 1080 ± 5 | 1059 ± 5
m2 = 0.974 | 890.5 ± 2 | 884.9 ± 2 | 879.1 ± 2 | 873.8 ± 2 | 1134 ± 5 | 1110 ± 5 | 1089 ± 5 | 1062 ± 5
m2 = 1.409 | 888.2 ± 2 | 882.6 ± 2 | 877 ± 2 | 871.6 ± 2 | 1137 ± 5 | 1113 ± 5 | 1092 ± 5 | 1065 ± 5
m2 = 2.445 | 886.1 ± 2 | 879.8 ± 2 | 873.8 ± 2 | 868.4 ± 2 | 1140 ± 5 | 1116 ± 5 | 1095 ± 5 | 1068 ± 5
m2 = 3.001 | 886 ± 2 | 879.1 ± 2 | 873.1 ± 2 | 867.9 ± 2 | 1143 ± 5 | 1122 ± 5 | 1098 ± 5 | 1071 ± 5

COC(C)=O [methyl ethanoate] + CCO
Details | mass density, 298.15 K [kg/m3] | mass density, 303.15 K [kg/m3] | mass density, 308.15 K [kg/m3] | mass density, 313.15 K [kg/m3] | speed of sound, 298.15 K [m/s] | speed of sound, 303.15 K [m/s] | speed of sound, 308.15 K [m/s] | speed of sound, 313.15 K [m/s]
m2 = 0.0152 | 927 ± 2 | 920.5 ± 2 | 914.2 ± 2 | 908 ± 2 | 1153 ± 5 | 1134 ± 5 | 1113 ± 5 | 1089 ± 5
m2 = 0.0357 | 926.8 ± 2 | 920.3 ± 2 | 914 ± 2 | 907.8 ± 2 | 1152 ± 5 | 1131 ± 5 | 1110 ± 5 | 1086 ± 5
m2 = 0.065 | 926.6 ± 2 | 920.1 ± 2 | 913.8 ± 2 | 907.6 ± 2 | 1150 ± 5 | 1130 ± 5 | 1108 ± 5 | 1084 ± 5
m2 = 0.102 | 926.3 ± 2 | 919.8 ± 2 | 913.5 ± 2 | 907.3 ± 2 | 1149 ± 5 | 1128 ± 5 | 1107 ± 5 | 1083 ± 5
m2 = 0.2098 | 925.5 ± 2 | 919 ± 2 | 912.7 ± 2 | 906.5 ± 2 | 1146 ± 5 | 1125 ± 5 | 1104 ± 5 | 1080 ± 5
m2 = 0.3417 | 924.5 ± 2 | 918 ± 2 | 911.7 ± 2 | 905.5 ± 2 | 1143 ± 5 | 1122 ± 5 | 1101 ± 5 | 1077 ± 5
m2 = 0.5068 | 923.1 ± 2 | 916.7 ± 2 | 910.4 ± 2 | 904.1 ± 2 | 1140 ± 5 | 1119 ± 5 | 1098 ± 5 | 1074 ± 5
m2 = 0.6769 | 921.8 ± 2 | 915.4 ± 2 | 909.1 ± 2 | 902.8 ± 2 | 1137 ± 5 | 1116 ± 5 | 1095 ± 5 | 1071 ± 5
m2 = 0.9775 | 919.5 ± 2 | 913.1 ± 2 | 906.9 ± 2 | 900.6 ± 2 | 1134 ± 5 | 1113 ± 5 | 1092 ± 5 | 1068 ± 5
m2 = 1.702 | 914.4 ± 2 | 908 ± 2 | 901.9 ± 2 | 895.5 ± 2 | 1131 ± 5 | 1110 ± 5 | 1089 ± 5 | 1065 ± 5
m2 = 2.712 | 907.8 ± 2 | 901.5 ± 2 | 895.4 ± 2 | 889 ± 2 | 1128 ± 5 | 1107 ± 5 | 1086 ± 5 | 1062 ± 5
m2 = 3 | 905.8 ± 2 | 899.7 ± 2 | 893.5 ± 2 | 887.1 ± 2 | 1122 ± 5 | 1104 ± 5 | 1080 ± 5 | 1056 ± 5
